# From patent publication US9834823B2, “Primers, assays and methods for detecting an E. coli subtype” (priority 2012, dated 2017)
# How the values were obtained:
# Assay type in all cases: cell-based
# [1] = tested on: extraintestinal Escherichia coli isolates; test: Antimicrobial susceptibility testing (CLSI breakpoints), Olmsted County isolates; details: for Resistance prevalence among H30 ST131: H30 ST131 subclone, N = 70; for Resistance prevalence among non-H30 ST131: non-H30 ST131, N = 10
# [2] = tested on: Escherichia coli clinical isolates from U.S. veterans; test: Susceptibility testing (broth microdilution or disk diffusion) at VAMCs with population back-calculations; details: for Prevalence of resistance, H30 ST131: H30 ST131 subclone isolates (H30 subclone vs. others); for Prevalence of resistance, ST131: ST131 isolates (ST131 vs. others); for Prevalence of resistance, Total (%): all isolates; for Estimated fraction due to ST131: fraction of resistance phenotype due to ST131; for Overall prevalence in population, %: resistance phenotype, back-calculated with 29% FQ resistance
# [3] = tested on: Escherichia coli clinical isolates (ESBL-positive and ESBL-negative; ST131 subclones); test: Broth microdilution antimicrobial susceptibility, NorthShore ESBL case-control isolates; details: for No. of resistant isolates (column %), H30-Rx (N = 47): H30-Rx subclone isolates (N = 47) within the H30 ST131 subclone; for No. of resistant isolates (column %), H30, non-Rx (N = 15): H30 non-Rx isolates (N = 15) within the H30 ST131 subclone; for No. of resistant isolates (column %), H30 (N = 62): H30 subclone isolates (N = 62) among 71 E. coli ST131 isolates; for No. of resistant isolates (column %), Non-H30 (N = 9): non-H30 isolates (N = 9) among 71 E. coli ST131 isolates
# Text: As reported elsewhere, the 267 E. coli study isolates were collected between 2007 and 2010 as part of a prospective case-control study conducted at NorthShore University HealthSystem (Banerjee, R J et al. “Predictors and molecular epidemiology of community-onset extended-spectrum beta-lactamase (ESBL) Escherichia coli infection in a Midwestern community,” 2013 Infect Control Hosp Epidemiol; in press). Cases were defined as adults with ESBL-producing E. coli cultured from any specimen type. Controls were defined as the 1 or 2 patients with non-ESBL E. coli isolates identified just subsequent to the case isolate, and with the same specimen type and location of collection. Isolates obtained in the outpatient setting or within 48 hours of hospital admission were considered causes of community-associated infection. Further study details are as described (Banerjee, R J et al. “Predictors and molecular epidemiology of community-onset extended-spectrum beta-lactamase (ESBL) Escherichia coli infection in a Midwestern community,” 2013 Infect Control Hosp Epidemiol; in press).
# The resistance score was the total number of agents to which an isolate was resistant. This study was approved by the NorthShore and VA Medical Center institutional review boards.
# [4] = all non-H30 isolates (H30 subclone vs. others)
# [5] = all non-ST131 isolates (ST131 vs. others)
# [6] = resistance prevalence among H30 ST131 subclone isolates relative to all other isolates
# [7] = resistance prevalence among ST131 isolates relative to all other isolates
# [8] = ESBL-negative isolates, All N = 167
# [9] = ESBL-negative isolates, Non-ST131 N = 145
# [10] = ESBL-negative isolates, ST131 N = 22
# [11] = ESBL-positive isolates, All N = 100
# [12] = ESBL-positive isolates, Non-ST131 N = 51
# [13] = ESBL-positive isolates, ST131 N = 49
Compound,"No. of resistant isolates (column %) ([1]; All isolates, N = 299)",Resistance prevalence among H30 ST131 [1],"No. of resistant isolates (column %) ([1]; Other STs, N = 129)","No. of resistant isolates (column %) ([1]; ST9, N = 32)","No. of resistant isolates (column %) ([1]; ST69, N = 15)","No. of resistant isolates (column %) ([1]; ST73, N = 25)","No. of resistant isolates (column %) ([1]; ST127, N = 18)","No. of resistant isolates (column %) ([1]; ST131, N = 80)",Resistance prevalence among non-H30 ST131 [1],"Prevalence of resistance, H30 ST131 [2]","Prevalence of resistance, ST131 [2]","Prevalence of resistance, Total (%) [2]","Prevalence of resistance, Others (%) [2, 4]","Prevalence of resistance, Others (%) [2, 5]",Estimated fraction due to ST131 [2],"Overall prevalence in population, % [2]","Prevalence ratio of resistance [2, 6]","Prevalence ratio of resistance [2, 7]","No. resistant (column %) [3, 8]","No. resistant (column %) [3, 9]",other results
"CC1(C)S[C@@H]2[C@H](NC(=O)[C@H](N)c3ccccc3)C(=O)N2[C@H]1C(=O)O [Ampicillin, ampicillin]",156 (52),81%,3 (41),13 (41),11 (73),10 (40),4 (22),65 (81),80%,76,77,46%,36%,34%,.46,46%,2.1,2.3,73 (44),54 (37),"No. resistant (column %) [3, 10]: 19 (86); No. resistant (column %) [3, 11]: 100 (100); No. resistant (column %) [3, 12]: 51 (100); No. resistant (column %) [3, 13]: 49 (100); No. of resistant isolates (column %), H30-Rx (N = 47) [3]: 46 (98) No. (column %); No. of resistant isolates (column %), H30, non-Rx (N = 15) [3]: 15 (100) No. (column %); No. of resistant isolates (column %), H30 (N = 62) [3]: 61 (98) No. (column %); No. of resistant isolates (column %), Non-H30 (N = 9) [3]: 7 (78) No. (column %)"
"Cc1nnc(SCC2=C(C(=O)O)N3C(=O)[C@@H](NC(=O)Cn4cnnn4)[C@H]3SC2)s1 [Cefazolin, cefazolin]",93 (31),58%,30 (23),3 (9),5 (33),7 (28),3 (17),45 (57),50%,27,29,17%,14%,12%,.47,17%,2.0,2.3,10 (6),9 (6),"No. resistant (column %) [3, 10]: 1 (5); No. resistant (column %) [3, 11]: 99 (99); No. resistant (column %) [3, 12]: 51 (100); No. resistant (column %) [3, 13]: 48 (98); No. of resistant isolates (column %), H30-Rx (N = 47) [3]: 43 (91) No. (column %); No. of resistant isolates (column %), H30, non-Rx (N = 15) [3]: 5 (33) No. (column %); No. of resistant isolates (column %), H30 (N = 62) [3]: 48 (77) No. (column %); No. of resistant isolates (column %), Non-H30 (N = 9) [3]: 1 (11) No. (column %)"
CC(C)(O/N=C(\C(=O)N[C@@H]1C(=O)N2C(C(=O)[O-])=C(C[n+]3ccccc3)CS[C@H]12)c1csc(N)n1)C(=O)O [Ceftazidime],–,–,–,–,–,–,–,–,–,–,–,–,–,–,–,–,–,–,1 (1),1 (1),"No. resistant (column %) [3, 10]: 0 (0); No. resistant (column %) [3, 11]: 92 (92); No. resistant (column %) [3, 12]: 47 (92); No. resistant (column %) [3, 13]: 45 (92); No. of resistant isolates (column %), H30-Rx (N = 47) [3]: 40 (85) No. (column %); No. of resistant isolates (column %), H30, non-Rx (N = 15) [3]: 4 (27) No. (column %); No. of resistant isolates (column %), H30 (N = 62) [3]: 44 (71) No. (column %); No. of resistant isolates (column %), Non-H30 (N = 9) [3]: 1 (11) No. (column %)"
"CO/N=C(\C(=O)N[C@@H]1C(=O)N2C(C(=O)O)=C(CSc3nc(=O)c(=O)[nH]n3C)CS[C@H]12)c1csc(N)n1 [Ceftriaxone, ceftriaxone]",16 (6),9%,8 (7),0,0,0,0,8 (11),29%,4,3,2%,2%,2%,.43,2%,2.0,1.9,1 (1),1 (1),"No. resistant (column %) [3, 10]: 0 (0); No. resistant (column %) [3, 11]: 98 (98); No. resistant (column %) [3, 12]: 51 (100); No. resistant (column %) [3, 13]: 47 (96); No. of resistant isolates (column %), H30-Rx (N = 47) [3]: 42 (89) No. (column %); No. of resistant isolates (column %), H30, non-Rx (N = 15) [3]: 4 (27) No. (column %); No. of resistant isolates (column %), H30 (N = 62) [3]: 46 (74) No. (column %); No. of resistant isolates (column %), Non-H30 (N = 9) [3]: 1 (11) No. (column %)"
"C[C@@H](O)[C@H]1C(=O)N2C(C(=O)O)=C(SCCN=CN)C[C@H]12 [Imipenem, imipenem]",3 (1),–,1 (1),0,0,0,2 (14),0,–,0.5,0.4,0.25%,0.2%,0.2%,.50,0.25%,1.4,1.4,–,–,–
"O=C1CN(/N=C/c2ccc([N+](=O)[O-])o2)C(=O)N1 [Nitrofurantoin, nitrofurantoin]",8 (3),3%,3 (2),1 (3),0,1 (4),0,3 (4),13%,8,8,6%,5%,5%,.36,6%,3.4,3.2,–,–,–
ampicillin/sulbactam,–,–,–,–,–,–,–,–,–,57,58,34%,27%,24%,.48,34%,2.1,2.4,–,–,–
gentamicin,29 (10),30%,5 (4),0,0,0,1 (6),23 (29),20%,28,29,11%,5%,3%,.76,11%,5.4,8.2,12 (7),2 (1),"ST131's overall contribution to antimicrobial resistance within the source E. coli population ([2]; back-calculations): 76%; No. resistant (column %) [3, 10]: 10 (45); No. resistant (column %) [3, 11]: 48 (48); No. resistant (column %) [3, 12]: 30 (59); No. resistant (column %) [3, 13]: 18 (37); No. of resistant isolates (column %), H30-Rx (N = 47) [3]: 15 (32) No. (column %); No. of resistant isolates (column %), H30, non-Rx (N = 15) [3]: 8 (53) No. (column %); No. of resistant isolates (column %), H30 (N = 62) [3]: 23 (37) No. (column %); No. of resistant isolates (column %), Non-H30 (N = 9) [3]: 5 (56) No. (column %)"
piperacillin/tazobactam,6 (2),1%,2 (2),0,0,2 (8),1 (6),1 (1),0%,–,–,–,–,–,–,–,–,–,–,–,–
